Reference: paper PMC7663056, “Crystal Structure and Inhibitor Identifications Reveal Targeting Opportunity for the Atypical MAPK Kinase ERK3” (International Journal of Molecular Sciences, 2020)
Like-named read-outs stand apart in the source and are kept apart here.

Assays:
ERK3 kinase domain [1] = molecular target: T1, ERK3 kinase domain (Homo sapiens, UniProt Q16659); experiment: Melting temperature assay (differential scanning fluorimetry, DSF); assay type: binding; details: for ΔTm (melting temperature shift): DSF screen of 1454 kinase inhibitors
T1 construct: The kinase domain of ERK3 (M9-I327) was subcloned into pNIC28–Bsa4; His6 (N, cleaved yes); made in house; host or cells: E. coli (co-expressed with lambda phosphatase)
Procedure: The ERK3 kinase domain at 2 µM in 10 mM HEPES pH 7.5 and 500 mM NaCl was mixed with 10 µM inhibitors and SyPRO Orange at 1:1000 dilution. After 10 min incubation at room temperature, the fluorescence signal, which increases upon the temperature-dependent unfolding of ERK3 protein, was measured using Mx3005p real-time PCR machine (Stratagene, San Diego, CA, USA). The ∆Tm shifts were calculated using protocol described previously.

[2] = molecular target: T2, Full length ERK3 (NanoLuc fusion) (Homo sapiens, UniProt Q16659); experiment: Cell-based NanoBRET assay (tracer displacement) in HEK293T cells; details: for IC50: Figure 2F, HEK293T cells, 0.25 µM Tracer K5, 2 h, averaged over two replicates; for remaining activity at 5 µM / remaining activity at 10 µM: HEK-293T, 2 h, Table S3, ratio to DMSO control; for remaining activity at 5 µM: single dose 5 µM, read-out: Norm.BRET 5 µM; for remaining activity at 10 µM: single dose 10 µM, read-out: Norm.BRET 10 µM
T2 construct: Full length ERK3 was cloned into pFC32K (Promega, Madison, WI, USA); expressed in transfected cells; host or cells: HEK293T
Procedure: Full length ERK3 was cloned into pFC32K (Promega, Madison, WI, USA) for the expression of an […] NanoLuc fusion, and the plasmid was transfected into HEK293T cells cultured in DMEM (Gibco) supplemented with 10% fetal bovine serum (Gibco) and penicillin/streptamycin (Gibco, Thermo Fisher Scientific, Waltham, MA, USA). NanoBRET assays were performed using protocol published previously. Briefly, after transfection and 20 h incubation, cells were harvested and subsequently resuspended in OptiMEM (Gibco). […] BRET luminescence (450 nm for donor emission and 610 nm for BRET signal) was measured using PHERAstar FSX plate reader (BMG Labtech, Ortenberg, Germany). Milli-BRET units (mBU) were calculated as a ratio between the BRET signal and the overall measured luminescence. A dose–response fitting was applied, and the corresponding IC50 values were calculated in Prism software. For the single concentration screening, the normalized BRET values were calculated from the ratio between the BRET signals of the tested inhibitor and that of the DMSO control.

ERK3 kinase domain [3] = molecular target: T1, ERK3 kinase domain; experiment: Isothermal titration calorimetry (ITC); assay type: binding; details: for Kd: Figure 2E, 15 °C, averaged over two replicates, read-out: ITC dissociation constant Kd
Procedure: The integrated heat of titration was calculated and fitted into an independent binding model using NanoAnalyzer software. Thermodynamic parameters, the dissociation constant (Kd), and stoichiometry (n) were an average over duplicates.

ERK3 kinase domain [4] = molecular target: T1, ERK3 kinase domain; experiment: Mass spectrometry analyses of covalent adducts (intact mass, chymotrypsin digestion); assay type: binding; details: kinase and inhibitor at 1:1 ratio, 30 min, room temperature
Procedure: The protein was purified using C8 stage tips, and the intact mass was analysed using LC-ESI TOF (Agilient, Santa Clara, CA, USA) and Bioconfirm software (Agilient). Chymotrypsin digestion followed by mass spectrometry analysis was performed to identify the residue that forms a covalent bond with the inhibitors. […] The protein was subsequently precipitated by 50% […], and the resulting pellet was washed twice with cold acetone. Chymotrypsin (Sigma Aldrich) digestion was performed in 50 mM (NH4)2CO3 overnight at 37 °C. The solution after proteolysis were spotted in quadruplets onto the 4-chloro-α-cyanocinnamic acid matrix (Sigma Aldrich; 3 mg mL^−1 in TFA-acidified 50% acetonitrile), and the m/z ratios were analysed on a Thermo Fisher MALDI-LTQ Orbitrap XL spectrometer.

[5] = Table S2, 10 µM inhibitors, read-out: ΔTm Initial Screen
[6] = Table S2, average of two repeats ± standard deviation, read-out: ΔTm Follow Up
[7] = Table S3, DSF assay values shown for comparison, read-out: ΔTm ERK3

T1 sequence (Q16659 9-327): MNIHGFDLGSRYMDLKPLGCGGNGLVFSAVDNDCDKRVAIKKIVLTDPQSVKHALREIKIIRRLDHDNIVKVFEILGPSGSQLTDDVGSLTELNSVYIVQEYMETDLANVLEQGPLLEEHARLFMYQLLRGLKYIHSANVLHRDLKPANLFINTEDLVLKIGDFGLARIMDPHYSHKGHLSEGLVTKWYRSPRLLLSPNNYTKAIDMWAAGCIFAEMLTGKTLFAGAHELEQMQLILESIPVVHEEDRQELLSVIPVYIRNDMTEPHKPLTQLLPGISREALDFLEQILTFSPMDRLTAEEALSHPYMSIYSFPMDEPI
T2 sequence (Q16659 whole entry, the tested form may be a part): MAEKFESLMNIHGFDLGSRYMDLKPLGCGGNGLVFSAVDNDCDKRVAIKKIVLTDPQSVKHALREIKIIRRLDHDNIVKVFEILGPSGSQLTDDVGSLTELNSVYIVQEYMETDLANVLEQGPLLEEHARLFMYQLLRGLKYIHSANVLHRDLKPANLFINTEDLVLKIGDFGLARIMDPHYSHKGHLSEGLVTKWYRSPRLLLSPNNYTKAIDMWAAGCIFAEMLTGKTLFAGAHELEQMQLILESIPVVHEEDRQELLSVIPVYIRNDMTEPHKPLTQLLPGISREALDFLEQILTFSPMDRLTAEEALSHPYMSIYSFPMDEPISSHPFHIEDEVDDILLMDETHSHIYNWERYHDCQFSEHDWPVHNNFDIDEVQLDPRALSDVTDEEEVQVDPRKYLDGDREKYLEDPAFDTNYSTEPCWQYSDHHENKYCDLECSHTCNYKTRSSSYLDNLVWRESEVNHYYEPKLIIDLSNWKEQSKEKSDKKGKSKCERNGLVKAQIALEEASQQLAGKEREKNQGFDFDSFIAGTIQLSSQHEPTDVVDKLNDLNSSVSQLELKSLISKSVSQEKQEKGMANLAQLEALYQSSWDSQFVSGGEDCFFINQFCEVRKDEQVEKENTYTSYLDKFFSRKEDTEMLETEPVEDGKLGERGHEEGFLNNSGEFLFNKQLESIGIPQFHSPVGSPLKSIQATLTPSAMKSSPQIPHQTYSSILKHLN

Structure (SMILES) | ΔTm at 10 µM (ERK3 kinase domain [1]; [5]) [°C] | ΔTm at 10 µM (ERK3 kinase domain [1]; [6]) [°C] | remaining activity at 5 µM ([2]; HEK293T) [%] | remaining activity at 10 µM ([2]; HEK293T) [%] | ΔTm at 10 µM (ERK3 kinase domain [1]; [7]) [°C] | also measured
O=C(c1ccc(Nc2nccc(-c3cc4ccccc4s3)n2)cc1)N1CCC(N2CCCC2)CC1 [IKK-16] | 1.67 | 1.7 ± 0.4 | 28.8 ± 2.4 | 19.6 ± 5.7 |  | IC50 [2]: 116 ± 26 nM; Kd (ERK3 kinase domain [3]): 1850 ± 915 nM
CNC(=O)c1cc(Oc2ccc(NC(=O)Nc3ccc(Cl)c(C(F)(F)F)c3)cc2)ccn1 [Sorafenib] |  |  |  |  |  | ΔTm at 10 µM (ERK3 kinase domain [1]; read-out: ΔTm Follow Up): 0 °C; ΔTm at 10 µM (ERK3 kinase domain [1]; read-out: ΔTm Initial Screen): 1.2 °C
Cc1cnc(Nc2ccc(N3CCN(C)CC3)cc2)nc1Nc1cccc(S(=O)(=O)NC(C)(C)C)c1 [TG101209] |  |  | 46.6 ± 2.2 | 36.9 ± 0.7 | 0.3 ± 0.2 | IC50 [2]: 1540 ± 214 nM
CN1CCN(c2ccc(Nc3nccc(-c4cnn5ncccc45)n3)cc2C#N)CC1 [CAF078] | 3.83 | 3.3 ± 0.2 |  |  |  | ΔTm (melting temperature shift) (ERK3 kinase domain [1]): 3.1–3.8 °C; IC50 [2]: 9 ± 1 nM; ITC dissociation constant (Kd), in words (ERK3 kinase domain [3]): low nanomolar affinities; Kd (ERK3 kinase domain [3]): 44 ± 26 nM
CCN1CCN(Cc2ccc(-c3cc4c(N[C@H](C)c5ccccc5)ncnc4[nH]3)cc2)CC1 [AEE788] |  |  | 40 ± 1.6 | 38.8 ± 3.1 | 0.4 ± 0.3 | IC50 [2]: 145 ± 45 nM
Fc1ccc(-c2ncn(C3CCNCC3)c2-c2ccnc(Oc3ccc4c(c3)OCO4)n2)cc1 [SB-250715] | 1.1 |  |  |  |  | 
O=C(NC(NC(=S)Nc1ccc(F)c([N+](=O)[O-])c1)C(Cl)(Cl)Cl)C(c1ccccc1)c1ccccc1 (stereo not shown) [CGK733] | 1.17 |  |  |  |  | 
Cc1cc(Nc2cc(N3CCN(C)CC3)nc(/C=C/c3ccccc3)n2)n[nH]1 [ENMD-2076] |  |  | 90.8 ± 3 | 58.5 ± 0.4 | -0.15 | 
O=C(/C=C/c1ccc(O)c(O)c1)c1ccc(O)cc1O [Butein] | 1.15 |  |  |  |  | 
O=C(Nc1cccc(Nc2ncc(Br)c(NCCc3cnc[nH]3)n2)c1)N1CCCC1 [BX-912] |  |  | 74.1 ± 1.5 | 53.2 ± 1.7 | -0.12 | 
COc1cc2ncnc(Nc3cccc(Cl)c3)c2cc1OC [AG-1478] |  |  | 73.5 ± 1.1 | 41.7 | 0.06 | 
COc1ccc(Cl)c(Nc2nc3ccccc3nc2NS(=O)(=O)c2cccc(NC(=O)C(C)(C)N)c2)c1 [XL147] | 1.96 | 1.2 ± 0.6 |  |  |  | 
CN1CCN(c2ccc(Nc3nccc(-c4cnn5ncccc45)n3)cc2)CC1 [CAF045] |  |  |  |  |  | ΔTm at 10 µM (ERK3 kinase domain [1]; read-out: ΔTm Follow Up): 1.4 ± 0.5 °C; ΔTm at 10 µM (ERK3 kinase domain [1]; read-out: ΔTm Initial Screen): 1.61 °C
CCCN1CCC(c2ccc(Nc3nc(Nc4cc(F)ccc4C(N)=O)c4cc[nH]c4n3)c(OC)c2)CC1 [GSK1326255A] | 1.12 | -0.3 ± 0.3 |  |  |  | 
CNC(=O)c1nn(C)c2c1C(C)(C)Cc1cnc(Nc3ccc(N4CCN(C)CC4)cc3)nc1-2 [Milciclib] | 2.11 | 2.5 ± 0.3 | 40.9 | 26.8 ± 0.5 |  | IC50 [2]: 27 ± 5 nM; Kd (ERK3 kinase domain [3]): 245 ± 60 nM
Cc1nc(N)sc1-c1ccnc(Nc2ccc(N3CCOCC3)cc2)n1 [CYC116] |  |  | 64.9 ± 3.8 | 52.9 ± 2.8 | 0.26 | 
O=C(Nc1ccc(Nc2nccc(Nc3cc(C4CCCC4)[nH]n3)n2)cc1)Nc1cccc(C(F)(F)F)c1 [CD532] | 1.7 | 1 ± 0.1 |  |  |  | 
NS(=O)(=O)c1ccc(N/N=C2\C(=O)Nc3ccc4ncccc4c32)cc1 [GW305178X] | 1.04 | 1.1 ± 0.2 |  |  |  | 
Nc1nc(Nc2ccc(S(N)(=O)=O)cc2)nn1C(=O)c1c(F)cccc1F [JNJ-7706621] |  |  | 23.1 ± 0.1 | 17 ± 0.1 | 0.2 ± 0.1 | 
C=CC(=O)Nc1cccc(Nc2nc(Nc3ccc(Oc4ccnc(C(=O)NC)c4)cc3)ncc2F)c1 [CNX-774] | 1.04 |  |  |  |  | 

Structure (SMILES) | ΔTm at 10 µM (ERK3 kinase domain [1]; [5]) [°C] | ΔTm at 10 µM (ERK3 kinase domain [1]; [6]) [°C] | remaining activity at 5 µM ([2]; HEK293T) [%] | remaining activity at 10 µM ([2]; HEK293T) [%] | ΔTm at 10 µM (ERK3 kinase domain [1]; [7]) [°C] | also measured
O=C(Nc1c[nH]nc1-c1nc2ccc(CN3CCOCC3)cc2[nH]1)NC1CC1 [AT9283] | 3.08 | 3.1 ± 0.1 | 16.1 ± 3.9 | 10.6 ± 1.5 |  | ΔTm (melting temperature shift) (ERK3 kinase domain [1]): 3.1–3.8 °C; IC50 [2]: 15 ± 7 nM; ITC dissociation constant (Kd), in words (ERK3 kinase domain [3]): low nanomolar affinities; Kd (ERK3 kinase domain [3]): 80 ± 5 nM
CS(=O)(=O)CCNCc1ccc(-c2ccc3ncnc(Nc4ccc(OCc5ccccc5)c(Br)c4)c3c2)o1 [GW580496A] | 1.04 | 0.8 ± 0.4 |  |  |  | 
COc1cccc(-c2c[nH]c3c(N/N=C/c4ccncc4)ncnc23)c1 [GW814408X] | 2.55 | 2.5 ± 0.2 |  |  |  | 
CCn1cc(-c2ccnc3[nH]c(-c4cccc(CN(C)C)c4)cc23)c(-c2ccc(NC(=O)N(C)C)cc2)n1 [GSK1070916] | 1.45 | 0.1 ± 0.3 | 56.8 ± 2.8 | 31.3 ± 0.1 |  | IC50, cell-based NanoBRET assay ([2]; HEK293T): did not produce a BRET signal
COc1cc2ncnc(Nc3ccc(O)c(Br)c3)c2cc1OC [WHI-P154] |  |  | 50.8 ± 4.5 | 36.2 ± 6.3 | -0.1 ± 0.2 | IC50 [2]: 540 ± 129 nM
Nc1cccc(-c2cc3c(Oc4cccc(O)c4)ncnc3[nH]2)c1 [TWS119] |  |  | 54.2 ± 6.4 | 28.1 ± 5.5 | 0.6 ± 0.2 | IC50 [2]: 601 ± 29 nM; Kd (ERK3 kinase domain [3]): 1930 ± 182 nM
CC(C)(C)c1cnc(CSc2cnc(NC(=O)C3CCNCC3)s2)o1 [SNS-032] |  |  | 71.7 ± 7.8 | 49.8 ± 4.1 | 0.15 | 
CN1CCN(c2ccc(Nc3nccc(-c4cnn5ncccc45)n3)cc2F)CC1 [CAF052] | 2.81 | 2.5 ± 0.3 |  |  |  | IC50 [2]: 20 ± 13 nM
Cc1ncc(-c2ccnc(Nc3ccc(S(C)(=O)=O)cc3)n2)n1C(C)C [AZD5438] |  |  | 93.3 ± 4 | 61.7 ± 2.2 | -0.17 | 
CN(c1ncccc1CNc1nc(Nc2ccc3c(c2)CC(=O)N3)ncc1C(F)(F)F)S(C)(=O)=O [PF-00562271] |  |  | 76.8 ± 9.4 | 49.5 ± 4.6 | -0.09 | 
Oc1ccc2ccccc2c1SSc1c(O)ccc2ccccc12 [IPA-3] |  |  | 67.8 ± 10.6 | 45.5 ± 4.2 | -3.92 ± 0.3 | 
COc1cccc(-n2ncc3c(N/N=C/c4ccc(C(=O)NCCN(C)C)cc4)ncnc32)c1 [GW784307A] |  |  |  |  |  | ΔTm at 10 µM (ERK3 kinase domain [1]; read-out: ΔTm Initial Screen): 1.3 °C
O=C(Nc1cc(C(F)(F)F)cc(C(F)(F)F)c1)c1cc(Cl)ccc1O [IMD0354] |  |  |  |  |  | ΔTm at 10 µM (ERK3 kinase domain [1]; read-out: ΔTm Initial Screen): 1.21 °C
CC(C)CCN1c2nc(Nc3cc(F)c(O)c(F)c3)ncc2N(C)C(=O)C1C (stereo not shown) [BI-D1870] |  |  | 80.6 ± 6.7 | 49.4 ± 1.1 | 0.02 | 
C=CC(=O)Nc1cc2c(Nc3ccc(F)c(Cl)c3)ncnc2cc1OCCCN1CCOCC1 [Canertinib] | 2.05 | 3.1 ± 0.3 |  |  |  | 
NC(=O)c1cnc(N[C@@H]2CCCC[C@@H]2N)nc1Nc1cccc(-n2nccn2)c1 [PRT062607] |  |  | 88.2 ± 10.3 | 60.1 ± 16.9 | 0.51 | 
CN(C)C/C=C/C(=O)Nc1cccc(C(=O)Nc2ccc(Nc3nccc(-c4cccnc4)n3)cc2)c1 [JNK-IN-7] |  |  |  |  |  | IC50 [2]: 112 ± 23 nM; covalent adduct formation (intact mass shift) (ERK3 kinase domain [4]): covalent formation, albeit only partially
CC(C)(C)c1cc(NC(=O)Nc2ccc(-c3cn4c(n3)sc3cc(OCCN5CCOCC5)ccc34)cc2)no1 [Quizartinib] |  |  |  |  |  | ΔTm Initial Screen (ERK3 kinase domain [1]; Table S2, 10 µM inhibitors): 1.12 °C
O=C1Nc2ccc(I)cc2C1=Cc1cc(Br)c(O)c(Br)c1 [GW5074] |  |  |  |  |  | ΔTm at 10 µM (ERK3 kinase domain [1]; read-out: ΔTm Initial Screen): 1.36 °C
